Assay results reported in patent US7405051B2, “Method of screening antiplatelet agents” (Astellas Pharma Inc., priority 2000, dated 2008).

How the values were obtained:
[1] = molecular target: HORK3 protein (human ADP receptor P2TAC) (Homo sapiens, UniProt Q9H244); assay: [3H]-2MeSADP binding assay on membrane fraction of C6-15 cell expressing HORK3 protein; conditions: Scatchard analysis
From the text: (§1) The C6-15 cells expressing the HORK3 protein prepared in Example 5 were taken and washed, and then suspended in 20 mmol/L Tris-HCl (pH7.4) containing 5 mmol/L EDTA and a protease inhibitor cocktail set (Complete™; manufactured by Boeringer Mannheim). The whole was homogenized by using a POLYTRON, and ultracentrifuged. The pellet was suspended in 50 mmol/L Tris-HCl (pH7.4) containing 1 mmol/L EDTA, 100 mmol/L NaCl, 0.1% BSA, and Complete™ to obtain a membrane fraction.
(§2) After [^3H]-2MeSADP (manufactured by Moravek Biochemical) was added to 20 μg of the membrane fraction as a final concentration of 0.25 to 50 nmol/L, and was incubated in 250 μL of 50 mmol/L Tris-HCl (pH7.4) containing 1 mmol/L EDTA, 100 mmol/L NaCl, 0.1% BSA, and Complete™ at room temperature for 1 hour, the whole was collected on a glass filter by using a cell harvester. A microscintillator was added to the glass filter, and then a total amount of binding to the membrane fraction was measured by using a liquid scintillation counter. Further, an amount of non-specific binding to the membrane fraction was measured by adding 2MeSADP (a final concentration=50 μmol/L) in the above assay.
A microscintillator was added to the glass filter, and then radioactivity was measured by using a liquid scintillation counter. Further, radioactivity was measured by not adding the compound and by adding 2MeSADP (a final concentration=10 μmol/L) in the above assay, as a total amount of binding and an amount of non-specific binding, respectively.

[2] = system: membrane fraction of the host cell C6-15 not expressing the HORK3 protein; assay: [3H]-2MeSADP binding to membrane fraction of host cell C6-15 not expressing HORK3 protein; set-up: species or system rat
From the text: as §1
as §2, with “assay. […] In contrast, such a specific binding was not observed in the membrane fraction of the host cell C6-15 not expressing the HORK3 protein.” for “assay.”

Sequence of HORK3 protein (human ADP receptor P2TAC) (Q9H244 whole entry): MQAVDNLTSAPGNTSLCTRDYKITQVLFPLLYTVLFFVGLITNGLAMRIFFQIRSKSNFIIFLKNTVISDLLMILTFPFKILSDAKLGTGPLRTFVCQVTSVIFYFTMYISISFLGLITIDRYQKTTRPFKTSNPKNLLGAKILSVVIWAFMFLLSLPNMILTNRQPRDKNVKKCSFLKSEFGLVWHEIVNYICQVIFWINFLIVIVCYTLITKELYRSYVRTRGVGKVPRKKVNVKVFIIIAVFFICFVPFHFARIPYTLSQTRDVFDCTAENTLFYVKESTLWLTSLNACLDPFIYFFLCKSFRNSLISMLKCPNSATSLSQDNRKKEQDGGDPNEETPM

Question: Which Kd ([1]; 0.25 to 50 nmol/L, room temperature 1 hour, read-out: dissociation constant Kd of binding to the membrane fraction) does the source give for `CSc1nc(N)c2ncn([C@@H]3O[C@H](COP(=O)(O)OP(=O)(O)O)[C@@H](O)[C@H]3O)c2n1` [[^3H]-2MeSADP, [^3H] 2-methylthio-ADP] here?
Answer: 270 pM

Question: And the “maximum binding Bmax” value ([1]; membrane fraction of C6-15 cell expressing HORK3)?
Answer: 3.7 pmol/mg

Question: And the “specific binding to the membrane fraction” value [2]?
Answer: not observed
